# In paper PMC7213978, “The dynamic interplay of host and viral enzymes in type III CRISPR-mediated cyclic nucleotide signalling” (eLife, 2020):
# What was measured:
# [1] = target: T1, Csx1 (Saccharolobus solfataricus, UniProt Q97YD5); assay: native gel electrophoretic mobility shift, quadratic fit; format: binding
# T1 construct: recombinant from plasmid expression construct; homodimer
# T1 sequence (Q97YD5 1-377): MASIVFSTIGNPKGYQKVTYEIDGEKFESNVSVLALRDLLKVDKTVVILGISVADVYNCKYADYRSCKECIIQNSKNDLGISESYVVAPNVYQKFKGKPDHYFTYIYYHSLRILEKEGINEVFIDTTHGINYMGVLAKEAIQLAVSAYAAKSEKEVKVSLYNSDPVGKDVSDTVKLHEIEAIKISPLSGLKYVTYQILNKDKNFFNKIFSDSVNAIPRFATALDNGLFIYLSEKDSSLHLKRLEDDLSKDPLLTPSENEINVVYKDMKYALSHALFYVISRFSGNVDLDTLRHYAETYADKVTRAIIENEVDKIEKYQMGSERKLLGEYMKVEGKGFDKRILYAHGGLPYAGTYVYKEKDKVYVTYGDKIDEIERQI
# [2] = target: T2, Crn1 (Sso2081) (Saccharolobus solfataricus, UniProt Q7LYJ6); assay: native gel electrophoretic mobility shift; format: binding; details: read-out: apparent KD
# T2 construct: recombinant from plasmid expression construct; homodimer
# T2 sequence (Q7LYJ6 1-178): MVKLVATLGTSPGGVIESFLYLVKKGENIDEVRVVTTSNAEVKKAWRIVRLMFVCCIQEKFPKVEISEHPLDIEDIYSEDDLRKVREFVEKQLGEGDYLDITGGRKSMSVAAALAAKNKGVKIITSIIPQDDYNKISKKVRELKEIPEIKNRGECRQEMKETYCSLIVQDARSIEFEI
smiles,measurement,setting,value
"Nc1ncnc2c1ncn2[C@@H]1O[C@@H]2COP(=O)(O)O[C@H]3[C@@H](O)[C@H](n4cnc5c(N)ncnc54)O[C@@H]3COP(=O)(O)O[C@H]3[C@@H](O)[C@H](n4cnc5c(N)ncnc54)O[C@@H]3COP(=O)(O)O[C@H]3[C@@H](O)[C@H](n4cnc5c(N)ncnc54)O[C@@H]3COP(=O)(O)O[C@H]2[C@H]1O [cA4, cyclic tetra-adenylate]",Kd,[1],130 ± 20 nM
same,Kd,[2],~50 nM
